Measured values reported in patent US20100298141A1, “SUBSTITUTED PYRIDINE N-OXIDE HERBICIDES” (E. I. DU PONT DE NEMOURS AND COMPANY, priority 2007, published 2010).

How the values were obtained:
Surinam grass = assay: Test C pre-/postemergence test; format: in vivo, Brachiaria decumbens; details: for Plant response rating, Surinam Grass: 31 g ai/ha, scale 0 to 100 (0 no effect, 100 complete control)
How it was run: (§1)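 Test chemicals were formulated with surfactant in a non-phytotoxic solvent and sprayed both on freshly planted seeds (preemergence) and on 1- to 4-leaf plants of 2–18 cm (postemergence). Flooded-paddy pots received compound directly into 3 cm of standing water, maintained for the test.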

morningglory = assay: Test A pre-/postemergence greenhouse test; format: in vivo, Ipomoea spp.; details: for Morningglory plant response rating: 0 to 100 scale; for Plant response rating, Morningglory: 0 to 100 scale where 0 is no effect and 100 is complete control
How it was run: (§2)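 Herbicidal effect is a visual injury score given about ten days post-treatment by comparison with untreated controls. Preemergence plots received a directed spray onto sown loam–sand soil; postemergence plants, at the one- to two-leaf stage and 2–10 cm tall, were sprayed at the same time.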

giant foxtail [1] = assay: Test A pre-/postemergence greenhouse test; format: in vivo, Setaria faberi; details: for Foxtail, Giant plant response rating: 0 to 100 scale; for Plant response rating, Foxtail, Giant: 0 to 100 scale where 0 is no effect and 100 is complete control
How it was run: as §2

catchweed bedstraw = assay: Test C pre-/postemergence test; format: in vivo, Galium aparine; details: for Plant response rating, Galium: 31 g ai/ha, scale 0 to 100 (0 no effect, 100 complete control)
How it was run: as §1

lambsquarters = assay: Test C pre-/postemergence test; format: in vivo, Chenopodium album; details: for Plant response rating, Lambsquarters: 31 g ai/ha, scale 0 to 100 (0 no effect, 100 complete control)
How it was run: as §1

redroot pigweed = assay: Test A pre-/postemergence greenhouse test; format: in vivo, Amaranthus retroflexus; details: for Pigweed plant response rating: 0 to 100 scale; for Plant response rating, Pigweed: 0 to 100 scale where 0 is no effect and 100 is complete control
How it was run: as §2

[2] = system: common (oilseed) sunflower; assay: Test C pre-/postemergence test; format: in vivo, Helianthus annuus; details: for Plant response rating, Sunflower: 31 g ai/ha, scale 0 to 100 (0 no effect, 100 complete control)
How it was run: as §1

blackgrass = assay: Test C pre-/postemergence test; format: in vivo, Alopecurus myosuroides; details: for Plant response rating, Blackgrass: 31 g ai/ha, scale 0 to 100 (0 no effect, 100 complete control)
How it was run: as §1

common ragweed = assay: Test C pre-/postemergence test; format: in vivo, Ambrosia elation; details: for Plant response rating, Ragweed: 31 g ai/ha, scale 0 to 100 (0 no effect, 100 complete control)
How it was run: as §1

eastern black nightshade = assay: Test C pre-/postemergence test; format: in vivo, Solanum ptycanthum; details: for Plant response rating, Nightshade: 31 g ai/ha, scale 0 to 100 (0 no effect, 100 complete control)
How it was run: as §1

cocklebur = assay: Test C pre-/postemergence test; format: in vivo, Xanthium strumarium; details: for Plant response rating, Cocklebur: 31 g ai/ha, scale 0 to 100 (0 no effect, 100 complete control)
How it was run: as §1

downy brome = assay: Test C pre-/postemergence test; format: in vivo, Bromus tectorum; details: for Plant response rating, Bromegrass, Downy: 31 g ai/ha, scale 0 to 100 (0 no effect, 100 complete control)
How it was run: as §1

wheat [3] = assay: Test C pre-/postemergence test; format: in vivo, Triticum aestivum; details: for Plant response rating, Wheat: 31 g ai/ha, scale 0 to 100 (0 no effect, 100 complete control)
How it was run: as §1

kochia = assay: Test C pre-/postemergence test; format: in vivo, Kochia scoparia; details: for Plant response rating, Kochia: 31 g ai/ha, scale 0 to 100 (0 no effect, 100 complete control)
How it was run: as §1

wheat [4] = assay: Test A pre-/postemergence greenhouse test; format: in vivo, Triticum aestivum; details: for Wheat plant response rating: 0 to 100 scale; for Plant response rating, Wheat: 0 to 100 scale where 0 is no effect and 100 is complete control
How it was run: as §2

velvetleaf = assay: Test C pre-/postemergence test; format: in vivo, Abutilon theophrasti; details: for Plant response rating, Velvetleaf: 31 g ai/ha, scale 0 to 100 (0 no effect, 100 complete control)
How it was run: as §1

woolly cupgrass = assay: Test C pre-/postemergence test; format: in vivo, Eriochloa villosa; details: for Plant response rating, Cupgrass, Woolly: 31 g ai/ha, scale 0 to 100 (0 no effect, 100 complete control)
How it was run: as §1

giant foxtail [5] = assay: Test C pre-/postemergence test; format: in vivo, Setaria faberii; details: for Plant response rating, Foxtail, Giant: 31 g ai/ha, scale 0 to 100 (0 no effect, 100 complete control)
How it was run: as §1

wild oat = assay: Test C pre-/postemergence test; format: in vivo, Avena fatua; details: for Plant response rating, Oat, Wild: 31 g ai/ha, scale 0 to 100 (0 no effect, 100 complete control)
How it was run: as §1

[6] = 62 g ai/ha, Preemergence, scale 0 to 100
[7] = 125 g ai/ha, preemergence, scale 0 (no effect) to 100 (complete control)
[8] = preemergence, 250 g ai/ha, scale 0 (no effect) to 100 (complete control)
[9] = Postemergence, 125 g ai/ha, 0 is no effect, 100 is complete control
[10] = Postemergence, 500 g ai/ha, 0 is no effect, 100 is complete control
[11] = Preemergence, 125 g ai/ha, 0 no effect, 100 complete control

Cn1nc(C(F)(F)F)c(C(Cl)S(=O)(=O)c2cccc[n+]2[O-])c1OCC(F)(F)F (racemic) [Compound 36]
70: Foxtail, Giant plant response rating (giant foxtail [1]; [10]) | Nightshade plant response rating (eastern black nightshade; [6]) | Plant response rating, Nightshade (eastern black nightshade; Preemergence) | Velvetleaf plant response rating (velvetleaf; [8])
60: Lambsquarters plant response rating (lambsquarters; [6]) | Pigweed plant response rating (redroot pigweed; [10]) | Plant response rating, Blackgrass (blackgrass; Preemergence) | Plant response rating, Wheat (wheat [4]; Preemergence, 500 g ai/ha)
50: Plant response rating, Surinam Grass (Surinam grass; Preemergence) | Ragweed plant response rating (common ragweed; [8]) | Bromegrass, Downy plant response rating (downy brome; [8]) | Wheat plant response rating (wheat [4]; [10]) | Foxtail, Giant plant response rating (giant foxtail [5]; [6])
40: Foxtail, Giant plant response rating (giant foxtail [1]; [9]) | Velvetleaf plant response rating (velvetleaf; [7]) | Oat, Wild plant response rating (wild oat; [7])
0: Morningglory plant response rating (morningglory; [9]) | Morningglory plant response rating (morningglory; [11]) | Galium plant response rating (catchweed bedstraw; [6]) | Plant response rating, Galium (catchweed bedstraw; Preemergence) | Plant response rating, Lambsquarters (lambsquarters; Preemergence) | Sunflower plant response rating [2, 6] | Sunflower plant response rating [2, 7] | Plant response rating, Sunflower ([2]; Preemergence) | Sunflower plant response rating [2, 8] | Ragweed plant response rating (common ragweed; [6]) | Plant response rating, Ragweed (common ragweed; Preemergence) | Cocklebur plant response rating (cocklebur; [6]) | Cocklebur plant response rating (cocklebur; [7]) | Plant response rating, Cocklebur (cocklebur; Preemergence) | Cocklebur plant response rating (cocklebur; [8]) | Bromegrass, Downy plant response rating (downy brome; [6]) | Plant response rating, Bromegrass, Downy (downy brome; Preemergence) | Wheat plant response rating (wheat [3]; [6]) | Wheat plant response rating (wheat [3]; [7]) | Plant response rating, Wheat (wheat [3]; Preemergence) | Plant response rating, Kochia (kochia; Preemergence) | Wheat plant response rating (wheat [4]; [9]) | Velvetleaf plant response rating (velvetleaf; [6]) | Plant response rating, Velvetleaf (velvetleaf; Preemergence)
95: Lambsquarters plant response rating (lambsquarters; [8]) | Blackgrass plant response rating (blackgrass; [6]) | Blackgrass plant response rating (blackgrass; [7])
55: Cupgrass, Woolly plant response rating (woolly cupgrass; [6]) | Plant response rating, Cupgrass, Woolly (woolly cupgrass; Preemergence)
15: Wheat plant response rating (wheat [3]; [8])
80: Surinam Grass plant response rating (Surinam grass; [6]) | Plant response rating, Morningglory (morningglory; Preemergence, 500 g ai/ha) | Lambsquarters plant response rating (lambsquarters; [7]) | Nightshade plant response rating (eastern black nightshade; [7]) | Nightshade plant response rating (eastern black nightshade; [8]) | Oat, Wild plant response rating (wild oat; [8])
30: Morningglory plant response rating (morningglory; [10]) | Bromegrass, Downy plant response rating (downy brome; [7]) | Plant response rating, Foxtail, Giant (giant foxtail [5]; Preemergence) | Oat, Wild plant response rating (wild oat; [6])
100: Surinam Grass plant response rating (Surinam grass; [7]) | Surinam Grass plant response rating (Surinam grass; [8]) | Foxtail, Giant plant response rating (giant foxtail [1]; [11]) | Plant response rating, Foxtail, Giant (giant foxtail [1]; Preemergence, 500 g ai/ha) | Galium plant response rating (catchweed bedstraw; [7]) | Galium plant response rating (catchweed bedstraw; [8]) | Pigweed plant response rating (redroot pigweed; [11]) | Plant response rating, Pigweed (redroot pigweed; Preemergence, 500 g ai/ha) | Blackgrass plant response rating (blackgrass; [8]) | Kochia plant response rating (kochia; [8]) | Cupgrass, Woolly plant response rating (woolly cupgrass; [7]) | Cupgrass, Woolly plant response rating (woolly cupgrass; [8]) | Foxtail, Giant plant response rating (giant foxtail [5]; [7]) | Foxtail, Giant plant response rating (giant foxtail [5]; [8])
10: Pigweed plant response rating (redroot pigweed; [9]) | Ragweed plant response rating (common ragweed; [7])
20: Kochia plant response rating (kochia; [7]) | Wheat plant response rating (wheat [4]; [11])
25: Plant response rating, Oat, Wild (wild oat; Preemergence)

CC(c1c(C(F)(F)F)nn(CC(F)(F)F)c1Cl)[S+]([O-])c1cccc[n+]1[O-] (stereo not drawn) [Compound 46]
10: Pigweed plant response rating (redroot pigweed; [11]) | Cocklebur plant response rating (cocklebur; [8]) | Bromegrass, Downy plant response rating (downy brome; [7])
30: Morningglory plant response rating (morningglory; [11])
20: Oat, Wild plant response rating (wild oat; [6]) | Oat, Wild plant response rating (wild oat; [7])
40: Plant response rating, Pigweed (redroot pigweed; Postemergence, 125 g ai/ha) | Sunflower plant response rating [2, 8]
85: Surinam Grass plant response rating (Surinam grass; [6]) | Plant response rating, Surinam Grass (Surinam grass; Preemergence) | Galium plant response rating (catchweed bedstraw; [7]) | Plant response rating, Foxtail, Giant (giant foxtail [5]; Preemergence)
70: Plant response rating, Foxtail, Giant (giant foxtail [1]; Postemergence, 125 g ai/ha) | Plant response rating, Blackgrass (blackgrass; Preemergence)
60: Morningglory plant response rating (morningglory; [10]) | Ragweed plant response rating (common ragweed; [8]) | Plant response rating, Wheat (wheat [4]; Preemergence, 500 g ai/ha) | Velvetleaf plant response rating (velvetleaf; [8])
50: Pigweed plant response rating (redroot pigweed; [10]) | Kochia plant response rating (kochia; [6]) | Plant response rating, Kochia (kochia; Preemergence) | Wheat plant response rating (wheat [4]; [10]) | Oat, Wild plant response rating (wild oat; [8])
100: Surinam Grass plant response rating (Surinam grass; [7]) | Surinam Grass plant response rating (Surinam grass; [8]) | Plant response rating, Foxtail, Giant (giant foxtail [1]; Preemergence, 500 g ai/ha) | Lambsquarters plant response rating (lambsquarters; [7]) | Lambsquarters plant response rating (lambsquarters; [8]) | Plant response rating, Pigweed (redroot pigweed; Preemergence, 500 g ai/ha) | Blackgrass plant response rating (blackgrass; [6]) | Blackgrass plant response rating (blackgrass; [7]) | Blackgrass plant response rating (blackgrass; [8]) | Nightshade plant response rating (eastern black nightshade; [6]) | Nightshade plant response rating (eastern black nightshade; [7]) | Wheat plant response rating (wheat [3]; [6]) | Wheat plant response rating (wheat [3]; [7]) | Plant response rating, Wheat (wheat [3]; Preemergence) | Wheat plant response rating (wheat [3]; [8]) | Kochia plant response rating (kochia; [7]) | Kochia plant response rating (kochia; [8]) | Foxtail, Giant plant response rating (giant foxtail [5]; [6]) | Foxtail, Giant plant response rating (giant foxtail [5]; [7]) | Foxtail, Giant plant response rating (giant foxtail [5]; [8])
90: Plant response rating, Morningglory (morningglory; Preemergence, 500 g ai/ha) | Foxtail, Giant plant response rating (giant foxtail [1]; [11]) | Galium plant response rating (catchweed bedstraw; [8]) | Lambsquarters plant response rating (lambsquarters; [6])
95: Cupgrass, Woolly plant response rating (woolly cupgrass; [7]) | Cupgrass, Woolly plant response rating (woolly cupgrass; [8])
15: Bromegrass, Downy plant response rating (downy brome; [8])
80: Foxtail, Giant plant response rating (giant foxtail [1]; [10]) | Plant response rating, Nightshade (eastern black nightshade; Preemergence) | Cupgrass, Woolly plant response rating (woolly cupgrass; [6]) | Plant response rating, Cupgrass, Woolly (woolly cupgrass; Preemergence)
0: Plant response rating, Morningglory (morningglory; Postemergence, 125 g ai/ha) | Galium plant response rating (catchweed bedstraw; [6]) | Plant response rating, Galium (catchweed bedstraw; Preemergence) | Plant response rating, Lambsquarters (lambsquarters; Preemergence) | Sunflower plant response rating [2, 6] | Sunflower plant response rating [2, 7] | Plant response rating, Sunflower ([2]; Preemergence) | Ragweed plant response rating (common ragweed; [6]) | Plant response rating, Ragweed (common ragweed; Preemergence) | Cocklebur plant response rating (cocklebur; [6]) | Cocklebur plant response rating (cocklebur; [7]) | Plant response rating, Cocklebur (cocklebur; Preemergence) | Bromegrass, Downy plant response rating (downy brome; [6]) | Plant response rating, Bromegrass, Downy (downy brome; Preemergence) | Plant response rating, Wheat (wheat [4]; Postemergence, 125 g ai/ha) | Wheat plant response rating (wheat [4]; [11]) | Velvetleaf plant response rating (velvetleaf; [6]) | Velvetleaf plant response rating (velvetleaf; [7]) | Plant response rating, Velvetleaf (velvetleaf; Preemergence) | Plant response rating, Oat, Wild (wild oat; Preemergence)
5: Ragweed plant response rating (common ragweed; [7])
